From patent US8394742B2, “Methods, compounds and compositions with genotype selective anticancer activity” (The Translation Genomics Research Institute, priority 2005, dated 2013) come the findings set out here.

The test system of test [1] is DPC4. Description: DPC4 suppression by siRNA expression constructs, transient transfection. Format: cell-based, human. The conditions noted are these: MiaPaCa-2 (wild-type DPC4), 24 hours after transfection. From the text:
The pMSCVproH vector was first used to create 6 DPC4 siRNA expression constructs, each of which targets a different region of the DPC4 transcript. Each of the oligonucleotide sequences was designed based on the criteria described by Tuschl and co-workers (65) and blasted against the GenBank database to confirm their specificity for DPC4.
Applicants first tested the ability of these constructs in suppressing DPC4 expression by performing transient transfections. Each construct was transiently transfected into the pancreatic cancer cell line MiaPaCa-2 (wild-type DPC4) using the Lipofectin Reagent (Invitrogen). DPC4 expression was examined 24 hours after transfection.

Test [2] relates to DPC4. Description: DPC4 suppression in HPDE6 clones after retrovirus infection (Western blot). Format: cell-based, human. From the text:
Because of its high suppression ability in transient transfections, the construct pMSCVpuroH_DPC4_oligo4 was chosen to generate a cell line with stable DPC4 suppression from HPDE6. To verify the specificity of Oligo4, Applicants created a construct with a mutated Oligo4, Oligo4mut10. The only difference between the two oligos is that the nucleotide residue at position 10 was changed from cytosine in Oligo4 to adenine in Oligo4mut10 (FIG. 11A). After retrovirus infection, HPDE6 cells were selected with puromycin at 3 μg/ml. Individual clones were isolated using serial dilution of the cells in 96-well plates. Ten individual clones for each construct were picked and tested for DPC4 expression at protein level by Western blot.
Eight passages after the infection, the expression of DPC4 in this clone was still 90% inhibited compared to the HPDE6 cells transfected with the empty vector (HPDE6-vector). This new cell line, which was named HPDE6-siDPC4, along with HPDE6-vector forms a set of isogenic cell lines for the DPC4 gene.
In general terms: In western blotting, separated proteins are transferred to a membrane and probed.

5′AGCAAGGTTGCACATAGGC 3′ [Olig6]: the DPC4 suppression result with DPC4 [1] is “about 80%”.

With 5′GTAGGACTGCACCATACAC 3′ [Oligo4], the DPC4 suppression result with DPC4 [1] is “about 90%”; in the test on DPC4 [2] (HPDE6 individual clones, six out of 10, protein level by Western blot), “about 90%”. Further, the “expression of DPC4 inhibited” value with DPC4 [2] (HPDE6 clone (HPDE6-siDPC4), eight passages after infection, vs HPDE6-vector) is reported as 90%.
